Measured values reported in ChEMBL document CHEMBL3352629, “Hydroxamic acid based histone deacetylase inhibitors with confirmed activity against the malaria parasite” (Bioorg Med Chem Lett, 2015).
The source made the active and inactive calls. The calls are words filed in the database; no cut-off is given here. Square brackets hold non-standard residues; d marks the D form. Peptide text beside a SMILES is read from it. * marks the point of attachment. Asu = N[C@@H](CCCCCC(=O)O)C(=O)O; pGlu = O=C1CC[C@@H](C(=O)O)N1; NHPh = c1ccc(N*)cc1; NHOH = ON*

Key:
[1] = tested on: L6; experiment: Cytotoxicity against rat L6 cells; type: ADME, cell-based
[2] = tested on: Plasmodium falciparum; experiment: Antiprotozoan activity against Plasmodium falciparum infected in mouse assessed as reduction in parasite growth at 50 mg/kg, ip QD for 4 days; type: functional; conditions: 96 h, route intraperitoneal
[3] = tested on: Plasmodium falciparum; experiment: Antiprotozoan activity against Plasmodium falciparum NF54 IEF forms; type: functional, organism-based
[4] = tested on: Trypanosoma brucei rhodesiense; experiment: Antiprotozoan activity against Trypanosoma brucei rhodesiense STIB 900 trypomastigotes; type: functional, organism-based
[5] = tested on: Giardia intestinalis; experiment: Antiprotozoan activity against Giardia lamblia G1; type: functional, organism-based; conditions: Giardia duodenalis
[6] = tested on: Trypanosoma cruzi; experiment: Antiprotozoan activity against Trypanosoma cruzi Tulahuen C4 amastigotes; type: functional, organism-based
[7] = target: T1, Histone deacetylase 11 (Homo sapiens, UniProt Q96DB2); experiment: Inhibition of human HDAC11 using RHKK(Ac) as substrate by fluorimetric analysis
T1 sequence (Q96DB2 whole entry): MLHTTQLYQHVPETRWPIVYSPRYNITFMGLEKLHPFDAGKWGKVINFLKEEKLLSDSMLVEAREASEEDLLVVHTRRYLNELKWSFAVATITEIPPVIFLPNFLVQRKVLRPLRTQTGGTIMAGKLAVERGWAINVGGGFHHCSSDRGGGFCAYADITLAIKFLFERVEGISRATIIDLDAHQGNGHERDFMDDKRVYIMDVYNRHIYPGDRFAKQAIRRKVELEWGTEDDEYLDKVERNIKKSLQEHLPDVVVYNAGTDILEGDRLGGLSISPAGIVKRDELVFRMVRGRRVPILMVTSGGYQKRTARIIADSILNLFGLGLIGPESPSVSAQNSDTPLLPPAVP

[8] = tested on: Leishmania donovani; experiment: Antiprotozoan activity against Leishmania donovani MHOM- ET-67/L82 amastigotes at 1 uM; type: functional, organism-based
[9] = tested on: Leishmania donovani; experiment: Antiprotozoan activity against Leishmania donovani MHOM- ET-67/L82 amastigotes; type: functional, organism-based
[10] = target: T2, Histone deacetylase 8 (Homo sapiens, UniProt Q9BY41); experiment: Inhibition of human HDAC8 using RHK(Ac)K(Ac) as substrate by fluorimetric analysis
T2 sequence (Q9BY41 whole entry): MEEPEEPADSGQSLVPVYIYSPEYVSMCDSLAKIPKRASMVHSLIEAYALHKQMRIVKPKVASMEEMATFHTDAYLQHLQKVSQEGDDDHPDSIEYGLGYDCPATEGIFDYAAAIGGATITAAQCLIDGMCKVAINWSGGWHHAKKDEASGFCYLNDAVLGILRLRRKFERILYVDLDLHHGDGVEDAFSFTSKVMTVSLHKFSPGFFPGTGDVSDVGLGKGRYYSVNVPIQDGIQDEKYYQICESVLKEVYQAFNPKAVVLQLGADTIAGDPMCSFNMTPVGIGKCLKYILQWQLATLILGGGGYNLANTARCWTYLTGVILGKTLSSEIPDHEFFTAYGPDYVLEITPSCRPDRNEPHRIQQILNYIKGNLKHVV

[11] = target: T3, Protein deacetylase HDAC6 (Homo sapiens, UniProt Q9UBN7); experiment: Inhibition of human HDAC6 using RHKK(Ac) as substrate by fluorimetric analysis
T3 sequence (Q9UBN7 whole entry): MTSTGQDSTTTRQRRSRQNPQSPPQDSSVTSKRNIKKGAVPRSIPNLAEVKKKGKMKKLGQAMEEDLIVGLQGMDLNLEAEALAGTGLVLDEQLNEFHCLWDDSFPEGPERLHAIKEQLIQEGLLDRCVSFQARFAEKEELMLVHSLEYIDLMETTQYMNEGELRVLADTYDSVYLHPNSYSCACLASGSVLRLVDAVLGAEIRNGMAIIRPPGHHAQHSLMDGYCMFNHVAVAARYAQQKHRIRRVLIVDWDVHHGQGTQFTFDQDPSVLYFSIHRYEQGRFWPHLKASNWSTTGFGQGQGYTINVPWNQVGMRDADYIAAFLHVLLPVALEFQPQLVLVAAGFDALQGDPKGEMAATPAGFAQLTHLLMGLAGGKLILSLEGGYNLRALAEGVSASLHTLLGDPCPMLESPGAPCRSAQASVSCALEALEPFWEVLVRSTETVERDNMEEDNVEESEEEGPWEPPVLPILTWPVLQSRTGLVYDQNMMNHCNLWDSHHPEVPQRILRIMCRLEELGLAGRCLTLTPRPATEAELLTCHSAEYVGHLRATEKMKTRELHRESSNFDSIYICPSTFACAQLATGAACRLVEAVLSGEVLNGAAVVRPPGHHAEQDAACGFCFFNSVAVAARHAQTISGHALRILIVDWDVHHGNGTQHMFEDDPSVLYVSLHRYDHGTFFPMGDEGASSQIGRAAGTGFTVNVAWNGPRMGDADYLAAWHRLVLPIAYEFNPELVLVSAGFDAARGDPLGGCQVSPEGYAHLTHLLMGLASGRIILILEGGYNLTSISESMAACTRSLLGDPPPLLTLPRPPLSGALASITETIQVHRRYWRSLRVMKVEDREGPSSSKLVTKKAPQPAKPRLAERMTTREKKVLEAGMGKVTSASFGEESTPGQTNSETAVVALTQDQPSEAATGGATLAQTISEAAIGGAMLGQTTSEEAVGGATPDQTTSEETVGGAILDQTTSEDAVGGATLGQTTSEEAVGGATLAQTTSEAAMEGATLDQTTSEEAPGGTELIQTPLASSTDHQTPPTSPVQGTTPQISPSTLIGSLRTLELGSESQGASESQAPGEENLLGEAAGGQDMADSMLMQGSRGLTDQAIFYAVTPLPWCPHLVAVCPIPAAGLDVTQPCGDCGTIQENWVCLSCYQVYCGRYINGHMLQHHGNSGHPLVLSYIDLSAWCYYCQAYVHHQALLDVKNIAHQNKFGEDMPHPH

[12] = target: T4, Polyamine deacetylase HDAC10 (Homo sapiens, UniProt Q969S8); experiment: Inhibition of human HDAC10 using RHKK(Ac) as substrate by fluorimetric analysis
T4 sequence (Q969S8 whole entry): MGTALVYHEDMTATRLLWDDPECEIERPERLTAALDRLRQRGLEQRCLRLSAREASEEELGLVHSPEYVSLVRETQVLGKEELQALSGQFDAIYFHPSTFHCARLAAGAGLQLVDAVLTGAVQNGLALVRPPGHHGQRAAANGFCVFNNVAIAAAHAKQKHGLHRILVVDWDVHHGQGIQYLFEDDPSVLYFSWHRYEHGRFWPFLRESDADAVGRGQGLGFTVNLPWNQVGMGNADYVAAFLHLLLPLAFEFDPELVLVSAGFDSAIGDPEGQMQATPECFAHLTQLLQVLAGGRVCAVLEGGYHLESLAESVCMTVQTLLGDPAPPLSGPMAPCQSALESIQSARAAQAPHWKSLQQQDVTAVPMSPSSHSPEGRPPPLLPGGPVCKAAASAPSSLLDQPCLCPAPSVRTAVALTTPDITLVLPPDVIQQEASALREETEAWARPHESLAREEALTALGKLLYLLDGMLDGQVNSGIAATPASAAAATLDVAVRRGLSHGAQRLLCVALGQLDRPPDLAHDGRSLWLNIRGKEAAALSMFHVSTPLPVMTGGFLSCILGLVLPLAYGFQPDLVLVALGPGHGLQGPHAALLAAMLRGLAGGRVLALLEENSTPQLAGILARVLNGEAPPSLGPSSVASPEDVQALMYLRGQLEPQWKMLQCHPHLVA

[13] = target: Histone deacetylase 2 (Homo sapiens, UniProt Q92769); experiment: Inhibition of human HDAC2 using RHKK(Ac) as substrate by fluorimetric analysis
[14] = target: Histone deacetylase 3 (Homo sapiens, UniProt O15379); experiment: Inhibition of human HDAC3 using RHKK(Ac) as substrate by fluorimetric analysis
[15] = target: Histone deacetylase 1 (Homo sapiens, UniProt Q13547); experiment: Inhibition of human HDAC1 using RHKK(Ac) as substrate by fluorimetric analysis
[16] = tested on: NCI-H460; experiment: Cytotoxicity against human NCI-H460 cells; type: functional, cell-based
[17] = tested on: Plasmodium falciparum; experiment: Antiprotozoan activity against Plasmodium falciparum infected in mouse assessed as mouse survival at 50 mg/kg, ip QD for 4 days; type: functional; conditions: route intraperitoneal
[18] = Leishmania donovani, MHOM- ET-67/L82, read-out: IC50

Sequence of Histone deacetylase 2 (Q92769 whole entry): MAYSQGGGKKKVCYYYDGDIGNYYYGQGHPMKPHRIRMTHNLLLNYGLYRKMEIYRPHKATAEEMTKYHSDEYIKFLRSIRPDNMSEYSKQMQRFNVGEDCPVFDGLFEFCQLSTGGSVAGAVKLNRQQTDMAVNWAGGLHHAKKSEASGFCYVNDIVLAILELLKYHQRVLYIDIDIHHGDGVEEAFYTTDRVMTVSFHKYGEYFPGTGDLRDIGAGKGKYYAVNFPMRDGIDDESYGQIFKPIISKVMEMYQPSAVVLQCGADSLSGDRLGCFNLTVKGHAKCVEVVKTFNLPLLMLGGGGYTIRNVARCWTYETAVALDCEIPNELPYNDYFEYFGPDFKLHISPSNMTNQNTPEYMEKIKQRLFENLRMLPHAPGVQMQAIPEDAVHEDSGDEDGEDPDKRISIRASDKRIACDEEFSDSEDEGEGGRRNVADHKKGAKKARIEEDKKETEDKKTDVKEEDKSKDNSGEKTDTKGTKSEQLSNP
Sequence of Histone deacetylase 1 (Q13547 whole entry): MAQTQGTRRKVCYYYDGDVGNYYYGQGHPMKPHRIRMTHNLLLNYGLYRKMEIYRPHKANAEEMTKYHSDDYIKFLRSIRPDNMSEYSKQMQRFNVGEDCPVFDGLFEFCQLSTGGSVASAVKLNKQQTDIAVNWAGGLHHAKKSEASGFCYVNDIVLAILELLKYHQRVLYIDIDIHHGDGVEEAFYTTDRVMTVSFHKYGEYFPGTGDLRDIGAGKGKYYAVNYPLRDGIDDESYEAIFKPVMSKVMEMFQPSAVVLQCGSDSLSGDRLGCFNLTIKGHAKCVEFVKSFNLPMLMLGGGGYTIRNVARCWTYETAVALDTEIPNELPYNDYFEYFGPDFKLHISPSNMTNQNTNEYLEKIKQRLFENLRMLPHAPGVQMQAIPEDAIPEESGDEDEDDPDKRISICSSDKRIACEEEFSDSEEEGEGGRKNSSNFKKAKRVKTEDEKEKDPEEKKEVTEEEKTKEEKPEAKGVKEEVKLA
Sequence of Histone deacetylase 3 (O15379 whole entry): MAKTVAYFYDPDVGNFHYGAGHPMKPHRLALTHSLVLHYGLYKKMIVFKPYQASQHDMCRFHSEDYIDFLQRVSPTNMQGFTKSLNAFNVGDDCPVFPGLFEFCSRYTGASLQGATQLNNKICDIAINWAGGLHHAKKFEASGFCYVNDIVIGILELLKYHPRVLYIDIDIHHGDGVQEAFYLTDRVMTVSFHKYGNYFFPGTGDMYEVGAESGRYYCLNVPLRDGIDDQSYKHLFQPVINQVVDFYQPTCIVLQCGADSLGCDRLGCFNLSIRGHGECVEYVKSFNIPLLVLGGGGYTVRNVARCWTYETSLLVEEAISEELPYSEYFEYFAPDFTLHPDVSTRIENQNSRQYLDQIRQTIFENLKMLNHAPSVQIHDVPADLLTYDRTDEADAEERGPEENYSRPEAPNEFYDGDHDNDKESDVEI

SMILES	IC50 [1] [nM]	inhibition in vivo at 50 mg/kg [2] [%]	IC50 [3] [nM]	IC50 [4] [µM]	IC50 [5] [µM]	IC50 [6] [µM]	other results
COc1cc([C@@H]2c3cc4c(cc3[C@H](O)[C@H]3COC(=O)[C@H]23)OCO4)cc(OC)c1OC [PODOFILOX]	19						
O=C(CCCCC[C@H](NC(=O)[C@H]1CCC(=O)N1)C(=O)Nc1cccc(C(F)(F)F)c1)NO	638	63.2	3	4.16	4.27	0.972	
Cc1cccc(NC(=O)[C@H](CCCCCC(=O)NO)NC(=O)[C@H]2CCC(=O)N2)c1	1230	33.8	6	5.51	4.64	0.849	IC50 [7]: 15 nM
CC(=O)SCCCCC[C@H](NC(=O)[C@H]1CCC(=O)N1)C(=O)Nc1cccc(C(F)(F)F)c1	91		3240	2.38	40.9	3.98	Activity [8]: inactive; IC50 [9]: Not Active
O=C(CCCCC[C@H](NC(=O)[C@@H]1CCC(=O)N1)C(=O)Nc1ccccc1)NO ([pGlu]-[Asu](NHOH)-NHPh)	75100	87.5	19	19.9	10.7	48.4	IC50 [10]: 93 nM; IC50 [11]: 3 nM; IC50 [12]: 113 nM; IC50 [13]: 89 nM; IC50 [7]: 13 nM; IC50 [14]: 62 nM; IC50 [15]: 34 nM; IC50 [16]: 2200 nM
CCCCCCCCCCCCCCCCOP(=O)([O-])OCC[N+](C)(C)C [MILTEFOSINE]							IC50 [9, 18]: 3.15 µM
Cc1ncc([N+](=O)[O-])n1CCO [METRONIDAZOLE]					0.58		
O=C(Cn1ccnc1[N+](=O)[O-])NCc1ccccc1 [BENZNIDAZOLE]						2.13	
O=C1CC[C@H](C(=O)N[C@@H](CCCCCS)C(=O)Nc2cccc(C(F)(F)F)c2)N1	2670		3260	4.75	64.8	19.1	IC50 [9, 18]: > 3 µM
O=C(CCCCC[C@H](NC(=O)[C@@H]1CC(=O)N1)C(=O)Nc1ccccc1)NO	7460		23	6.04	12.8	33	IC50 [10]: 137 nM; IC50 [11]: 6 nM; IC50 [12]: 125 nM; IC50 [13]: 143 nM; IC50 [7]: 37 nM; IC50 [14]: 88 nM; IC50 [15]: 59 nM; IC50 [16]: 5400 nM
O=C1CC[C@H](C(=O)N[C@@H](CCCCCS)C(=O)Nc2ccccc2)N1	5250		9660	3.23	12.3	25.8	IC50 [10]: 281 nM; IC50 [11]: 3 nM; IC50 [12]: 11 nM; IC50 [13]: 78 nM; IC50 [7]: 14 nM; IC50 [9, 18]: > 10 µM; IC50 [14]: 5 nM; IC50 [15]: 13 nM
O=C(CCCCCCC(=O)Nc1ccccc1)NO [VORINOSTAT]			25			10.1	Activity [8]: inactive
CC(=O)SCCCCC[C@H](NC(=O)[C@H]1CCC(=O)N1)C(=O)Nc1ccccc1	189		6570	2.51	8.11	2.1	Activity [8]: inactive; IC50 [9]: Not Active; IC50 [16]: 66 nM
C[C@@H]1CC[C@H]2[C@@H](C)C(=O)O[C@@H]3O[C@@]4(C)CC[C@@H]1[C@]32OO4 [ARTEMISININ]		99.9					Survival [17]: >30 days
C[C@H]1[C@@H](O)O[C@@H]2O[C@@]3(C)CC[C@H]4[C@H](C)CC[C@@H]1[C@@]24OO3 [ARTENIMOL]		99.8					
